According to US20230226092A1, “CANCER […] ON G[…]” (NuCana plc, priority 2015, published 2023):

System: advance progressive cancers that are refractory to, or have relapsed on, all conventional therapies
Test: ProGem1 dose escalation clinical study: clinical response (RECIST 1.1, tumour markers)
Format: in vivo, human
Set-up: CA125 level / CA19.9 / CEA / CA125 / Tumour volume / CA 15.3 tumour marker / inhibin B: unit not given here
Details: for CA 15.3 tumour marker: 726 at base; for inhibin B: 1,038 prior to study entry
Excerpt: The following data were generated in clinical studies of NUC-1031 in human patients with advance progressive cancers that are refractory to, or have relapsed on, all conventional therapies that have been used to date. The results clearly illustrate the ability of NUC-1031 to successfully treat refractory cancers.
Although the primary objectives of the dose escalation part of the study were to determine the Recommended Phase II Dose (RP2D) and safety profile, secondary objectives included determining the PK profile, however effective treatment of patients with a range of refractory cancers has also been observed as part of this study.
A total of 68 patients have been entered into this dose escalation study, of which 49 were evaluable for clinical response in that they have received at least 2 Cycles of NUC-1031 and were therefore eligible for a RECIST 1.1 assessment.
NUC-1031 was administered as a 5 to 30 minute intravenous slow bolus injection. • Schedule A: NUC-1031 was administered on days 1, 8, 15 of a 4 weekly Cycle. • Schedule B: NUC-1031 was administered on days 1, 5, 8, 12, 15, 19, of a 4 weekly Cycle.
Evaluable patients were patients that received ≥ 2 Cycles of NUC-1031 and were therefore eligible for a RECIST 1.1 assessment at the end of Cycle 2. Where the disease response duration, measured in months, is followed by a “+” this indicates ongoing disease control as of the latest cut-off date.

[1] = evaluable patients n = 49, RECIST 1.1

How did the “Reduction in tumour volume” value (Patient 037, pancreatic cancer, CT scan on 29th April 2014) turn out when “gemcitabine-[phenyl-benzoxy-L-alaninyl)]-phosphate [NUC-1031]” was run?
Its value is 30%.

What about the “Reduction in tumour volume” value (Patient 037, pancreatic cancer, end of Cycle 2 CT scan) of the same substance?
The value was 18.4%.

And the CEA (Patient 037, pancreatic cancer, from 536 at baseline)?
The CEA was 42.

And the CA19.9 (Patient 037, pancreatic cancer, from 15,000 at baseline)?
Its CA19.9 is 4,000.

What about the “Response to RECIST” value (Patient 038, ovarian cancer, 900 mg/m^2 weekly) of the same substance?
Its value is “Progressive Disease”.

And the “Increase in tumour volume” value (Patient 038, ovarian cancer, end of Cycle 2 scan)?
Its value is 25%.

What about the Disease response duration (Patient 040, cholangiocarcinoma) of the same substance?
The Disease response duration was 4 months.

What about the “CA19.9” value (Patient 040, cholangiocarcinoma, 4th June, from 664 at baseline) of the same substance?
The value was 155.

What about the “Response to RECIST” value (Patient 040, cholangiocarcinoma, 1,000, then 900 mg/m^2 weekly) of the same substance?
The value was “Stable Disease”.

And the Tumour volume (Patient 040, cholangiocarcinoma, end of Cycle 2 CT scan, from 85 at base)?
The Tumour volume was 82.1.

What about the Disease response duration (Patient 041, breast cancer) of the same substance?
Its Disease response duration is 4 months.

And the Symptomatic benefit (Patient 041, breast cancer)?
Its Symptomatic benefit is “managed to reduce opioids significantly”.

What about the “CA 15.3 tumour marker” value (Patient 041, breast cancer, 19th May 2014) of the same substance?
Its value is 824.

And the “Response to RECIST” value (Patient 041, breast cancer, 900, then 825 mg/m^2 weekly)?
The value was “Stable Disease”.

And the “CA 15.3 tumour marker” value (Patient 041, breast cancer, at C2)?
The value was 845.

And the “Response to RECIST” value (Patient 042, cholangiocarcinoma, 900 mg/m^2 weekly)?
The value was “Progressive Disease”.

And the “Reduction in tumour volume of primary target lesion” value (Patient 042, cholangiocarcinoma, end of Cycle 2 CT scan)?
The value was 9%.

What about the Disease response duration (Patient 043, ovarian cancer) of the same substance?
The Disease response duration was 13 months.

And the PET scan finding (Patient 043, ovarian cancer, 7th April 2014)?
The PET scan finding was “stable disease and SUV had gone down in some target tumours”.

And the CA125 (Patient 043, ovarian cancer, 15th July, from 1,099 at baseline)?
The CA125 was 910.

And the “Response to RECIST” value (Patient 043, ovarian cancer, 900, then 750 mg/m^2 weekly)?
The value was “Stable Disease”.

What about the CA125 (Patient 043, ovarian cancer, beginning of Cycle 2, from 1.099 at baseline) of the same substance?
The CA125 was 783.

And the “Reduction in tumour volume from baseline” value (Patient 043, ovarian cancer, end of Cycle 6 CT scan)?
The value was 10%.

What about the “Volume of fluid drained from pleural effusion” value (Patient 043, ovarian cancer, was 300ml per week) of the same substance?
The value was 150 ml per week.

And the Disease response duration (Patient 044, lung cancer)?
The Disease response duration was 5 months.

And the “Response to RECIST” value (Patient 044, lung cancer (adenocarcinoma), 900, then 825 mg/m^2 weekly)?
The value was “Stable Disease”.

What about the “Reduction in tumour volume” value (Patient 044, lung cancer, end of Cycle 2 CT scan) of the same substance?
Its value is 10%.

And the Disease response duration (Patient 046, adrenal carcinoma)?
The Disease response duration was 11 months.

What about the “Response to RECIST” value (Patient 046, adrenal carcinoma, 1,000, then 900, 750, 625 mg/m^2 weekly) of the same substance?
Its value is “Stable Disease”.

What about the “Reduction in tumour volume from baseline” value (Patient 046, adrenal carcinoma, end of Cycle 6 CT scan) of the same substance?
The value was 12.6%.

What about the Disease response duration (Patient 048, ovarian cancer) of the same substance?
Its Disease response duration is 8 months.

What about the “Response to RECIST” value (Patient 048, ovarian cancer (granulosa cell tumour), 1,000, then 900, 825, 750, 625 mg/m^2 weekly) of the same substance?
Its value is “Stable Disease”.

What about the “inhibin B” value (Patient 048, ovarian cancer, August) of the same substance?
Its value is 1148.

What about the “inhibin B” value (Patient 048, ovarian cancer, July 2014) of the same substance?
Its value is 1,106.

What about the “inhibin B” value (Patient 048, ovarian cancer, September) of the same substance?
Its value is 1053.

And the PET scan finding (Patient 048, ovarian cancer, end of Cycle 1)?
Its PET scan finding is “stable disease and reduction in SUV at target sites”.

And the Symptomatic benefit (Patient 050 (202), oesophageal cancer)?
The Symptomatic benefit was “improvement in their dysphagia”.

What about the “Response to RECIST” value (Patient 050 (202), oesophageal cancer, 900 mg/m^2 weekly) of the same substance?
Its value is “Progressive Disease”.

And the “Response to RECIST” value (Patient 051 (203), anal cancer, 900 mg/m^2 weekly)?
The value was “Progressive Disease”.

What about the Disease response duration (Patient 052 (204), oesophageal cancer) of the same substance?
Its Disease response duration is 5 months.

And the “Response to RECIST” value (Patient 052 (204), oesophageal cancer, 900, then 825 mg/m^2 weekly)?
Its value is “Stable Disease”.

And the “Response to RECIST” value (Patient 053 (205), colon cancer, 900 mg/m^2 weekly)?
Its value is “Progressive Disease”.

And the “Response to RECIST” value (Patient 055 (207), ovarian cancer, 900, then 825, 625 mg/m^2 weekly)?
Its value is “Stable Disease”.

And the “CA125” value (Patient 055 (207), ovarian cancer, January 2015, 36 at baseline)?
Its value is 24.

And the “Reduction in tumour volume from baseline” value (Patient 055 (207), ovarian cancer, end of Cycle 6 CT scan)?
The value was 18%.

And the Disease response duration (Patient 055 (207), ovarian cancer, ongoing)?
The Disease response duration was at least 10 months.

What about the Disease response duration (Patient 057 (209), ovarian cancer) of the same substance?
The Disease response duration was 5 months.

And the “Response to RECIST” value (Patient 057 (209), ovarian cancer, 900, then 825, 750 mg/m^2 weekly)?
The value was “Stable Disease”.

And the “Reduction in tumour volume from baseline” value (Patient 057 (209), ovarian cancer, end of Cycle 4 CT scan)?
The value was 10%.

What about the Disease response duration (Patient 058 (210), lung cancer) of the same substance?
Its Disease response duration is 4 months.

What about the “Response to RECIST” value (Patient 058 (210), lung cancer, 825, then 750 mg/m^2 weekly) of the same substance?
The value was “Stable Disease”.

And the Disease response duration (Patient 059 (211), cervical cancer)?
Its Disease response duration is 7 months.

And the “Response to RECIST” value (Patient 059 (211), cervical cancer, 825, then 750, 625 mg/m^2 weekly)?
The value was “Stable Disease”.

What about the “Response to RECIST” value (Patient 060 (212), pancreatic cancer, 825 mg/m^2 weekly) of the same substance?
Its value is “Progressive Disease”.

What about the Disease response duration (Patient 061 (213), colorectal cancer) of the same substance?
Its Disease response duration is 3 months.

And the “Response to RECIST” value (Patient 061 (213), colorectal cancer, 825 mg/m^2 weekly)?
Its value is “Stable Disease”.

And the “Reduction in tumour volume” value (Patient 061 (213), colorectal cancer, end of Cycle 2 CT scan)?
The value was 2%.

And the Disease response duration (Patient 063 (215), ovarian cancer)?
The Disease response duration was 3 months.

And the “Response to RECIST” value (Patient 063 (215), ovarian cancer, 825, then 750, 625 mg/m^2 weekly)?
Its value is “Stable Disease”.

And the “Response to RECIST” value (Patient 064 (216), trophoblastic cancer, 825 mg/m^2 weekly)?
Its value is “Progressive Disease”.

What about the “Response to RECIST” value (Patient 066 (218), colorectal cancer, 825, then 750, 625 mg/m^2 weekly) of the same substance?
The value was “Stable Disease”.

What about the “Reduction in tumour volume from baseline” value (Patient 066 (218), colorectal cancer, CT scan on 30th December) of the same substance?
The value was 16%.

What about the Disease response duration (Patient 066 (218), colorectal cancer, ongoing) of the same substance?
Its Disease response duration is at least 8 months.

What about the “Increase from baseline (EOS CT scan)” value (Patient 067 (219), osteosarcoma) of the same substance?
Its value is 1%.

And the “Response to RECIST” value (Patient 067 (219), osteosarcoma, 825, then 750 mg/m^2 weekly)?
Its value is “Stable Disease”.

What about the Disease response duration (Patient 067 (219), osteosarcoma, ongoing) of the same substance?
The Disease response duration was at least 7 months.

And the “Response to RECIST” value (Patient 068 (220), lung cancer, 825 mg/m^2 weekly)?
Its value is “Progressive Disease”.

What about the “Response to RECIST” value (Patient 069 (221), colorectal cancer, 825, then 750, 675, 625, 500 mg/m^2 weekly) of the same substance?
Its value is “Stable Disease”.

And the PET scan finding (Patient 069 (221), colorectal cancer, PET scan on 30/10)?
The PET scan finding was “Partial Response”.

What about the “Reduction in tumour volume from baseline” value (Patient 069 (221), colorectal cancer, end of C2 CT scan) of the same substance?
Its value is 11%.

And the “Reduction in tumour volume from baseline” value (Patient 069 (221), colorectal cancer, end of C4 CT scan)?
Its value is 26%.

And the Disease response duration (Patient 069 (221), colorectal cancer, ongoing)?
Its Disease response duration is at least 7 months.

And the “Clinical examination of metastases” value (Patient 069 (221), colorectal cancer, pre C2 examination)?
The value was “cutaneous and sub cutaneous metastases were greatly reduced or almost vanished”.

What about the “Best Overall Response: Partial Responses, patients (%)” value [1] of the same substance?
Its value is 5 (10%).

And the “Best Overall Response: Progressive Disease, patients (%)” value [1]?
Its value is 11 (22%).

And the “Best Overall Response: Stable Disease, patients (%)” value [1]?
The value was 33 (67%).
